# Counter-ions that a name gives are not always drawn.
# Test system: Escherichia coli strain ATCC25922
# Experiment: standard microdilution assay to determine minimum inhibitory concentrations (MICs)
# Type: cell-based
# Conditions: Escherichia coli strain ATCC25922, microdilution
# Method in brief: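 Broth microdilution MIC against E. coli ATCC25922, following CLSI protocols, typically in a 100 microliter final volume. Results reported as +/− relative to a 16 micrograms/ml cutoff.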
row,SMILES,E. coli ATCC25922 MIC
1,N=C(N)NCCCNCc1ccc(-n2cc3cc(-c4cc(OC(F)(F)F)cc(SCCCN)c4)[nH]c3nc2=O)cc1 [Compound 2047a],+ (a “+” indicates that the compound has an MIC value of 16 micrograms/ml or less)
2,CCOC(CN)COc1cccc(-c2cc3cn(-c4ccc(CNCCCNC(=N)N)cc4)c(=O)nc3[nH]2)c1 (stereo not shown) [Compound 1458],+ (a “+” indicates that the compound has an MIC value of 16 micrograms/ml or less)
3,N=C(N)NCCCNCc1ccc(-n2cc3cc(-c4cc(C(=O)N5CCC(F)(F)CC5)cc(N5CCNCC5)c4)[nH]c3nc2=O)cc1 [Compound 1074],+ (a “+” indicates that the compound has an MIC value of 16 micrograms/ml or less)
4,NCCCOCc1ccc(-c2cn3cc(-c4ccc(C(=O)N5CCNCC5)cc4)[nH]c3nc2=O)cc1 [Compound 931],− (a “−” indicates that the compound has an MIC value greater than 16 micrograms/ml)
5,N=C(N)NCCCNCc1ccc(-n2cc3cc(-c4cc(CNc5ccc(F)cc5)cc(N5CCNCC5)c4)[nH]c3nc2=O)cc1 [Compound 1060],+ (a “+” indicates that the compound has an MIC value of 16 micrograms/ml or less)
6,N=C(N)NCCCNCc1ccc(-n2cc3cc(-c4cc(C(=O)NC5CCC(F)(F)CC5)cc(N5CCNCC5)c4)[nH]c3nc2=O)cc1 [Compound 1045],+ (a “+” indicates that the compound has an MIC value of 16 micrograms/ml or less)
7,N=C(N)NCCCNCc1ccc(-n2cc3cc(C4CCCN(CC(O)CN)C4)[nH]c3nc2=O)cc1 (stereo not shown) [Compound 1422],+ (a “+” indicates that the compound has an MIC value of 16 micrograms/ml or less)
8,COc1ccc(CN(C2CCNCC2)S(=O)(=O)c2ccc(-c3cc4cn(-c5ccc(CNCCCNC(=N)N)cc5)c(=O)nc4[nH]3)cc2)cc1[N+](=O)[O-] [Compound 787],+ (a “+” indicates that the compound has an MIC value of 16 micrograms/ml or less)
9,N=C(N)NCCCNCc1ccc(-n2cc3cc(-c4ccc(S(=O)(=O)N(Cc5cc(-c6ccc(Cl)cc6)on5)C5CCNCC5)cc4)[nH]c3nc2=O)cc1 [Compound 803],+ (a “+” indicates that the compound has an MIC value of 16 micrograms/ml or less)
10,N=C(N)NCCCNCc1ccc(-n2cc3cc(C4CCN(CCCN)C4)[nH]c3nc2=O)cc1 (stereo not shown) [Compound 1448],+ (a “+” indicates that the compound has an MIC value of 16 micrograms/ml or less)
11,N=C(N)NCCCNCc1ccc(-n2cc3cc(C4CN(CCCCN)CCO4)[nH]c3nc2=O)cc1 (stereo not shown) [Compound 1381],+ (a “+” indicates that the compound has an MIC value of 16 micrograms/ml or less)
12,CS(=O)(=O)c1ccc(-c2cc(OCC(F)CN)cc(-c3cc4cn(-c5ccc(CNCCCNC(=N)N)cc5)c(=O)nc4[nH]3)c2)cc1 (stereo not shown) [Compound 2002a],− (a “−” indicates that the compound has an MIC value greater than 16 micrograms/ml)
13,CC1CN(C(=O)c2ccc(-c3cn4cc(-c5ccc(CNCCCN)cc5)c(=O)nc4[nH]3)cc2)CCN1 (stereo not shown) [Compound 821],+ (a “+” indicates that the compound has an MIC value of 16 micrograms/ml or less)
14,CC(CN)CN1CCC(c2cc3cn(-c4ccc(CNCCCNC(=N)N)cc4)c(=O)nc3[nH]2)C1 (stereo not shown) [Compound 2038a],+ (a “+” indicates that the compound has an MIC value of 16 micrograms/ml or less)
15,N=C(N)NCCCN1CC=C(n2cc3cc(-c4ccc(S(=O)(=O)N(CCCN5CCCCC5)C5CCNCC5)cc4)[nH]c3nc2=O)CC1 [Compound 960],+ (a “+” indicates that the compound has an MIC value of 16 micrograms/ml or less)
16,N=C(N)NCCCNCc1ccc(-n2cc3cc(-c4ccc(C(NC5CNC5)C(F)F)cc4)[nH]c3nc2=O)cc1 (stereo not shown) [Compound 1462],+ (a “+” indicates that the compound has an MIC value of 16 micrograms/ml or less)
17,CC(C)(C)NCC(=O)Nc1ccc(-c2cc3cn(-c4ccc(C(=O)NCCCNC(=N)N)cc4)c(=O)nc3[nH]2)cc1 [Compound 1281],+ (a “+” indicates that the compound has an MIC value of 16 micrograms/ml or less)
18,N=C(N)NCCCNCc1ccc(-n2cc3cc(-c4cccc(C(CCCN)C(F)(F)F)c4)[nH]c3nc2=O)cc1 (stereo not shown) [Compound 2075a],+ (a “+” indicates that the compound has an MIC value of 16 micrograms/ml or less)
19,CC(N)CCOc1cccc(-c2cc3cn(-c4ccc(CNCCCNC(=N)N)cc4)c(=O)nc3[nH]2)c1 (stereo not shown) [Compound 1439],+ (a “+” indicates that the compound has an MIC value of 16 micrograms/ml or less)
20,N=C(N)NCC(O)CNCc1ccc(-n2cc3cc(-c4ccc(S(=O)(=O)NC5CN(C(=N)N)C5)cc4)[nH]c3nc2=O)cc1 (stereo not shown) [Compound 1417],+ (a “+” indicates that the compound has an MIC value of 16 micrograms/ml or less)

# Same assay, conditions: Escherichia coli, ATCC25922, Escherichia coli strain ATCC25922, microdilution; read-out: E. coli ATCC25922 MIC
row,MIC,SMILES
1,> 16 µg/mL,NCCCNCc1ccc(-c2cn3nc(NC(=O)c4ccc(F)cc4)[nH]c3nc2=O)cc1 [Compound 709]
2,> 16 µg/mL,NCC(O)Cn1cc2cc(-c3ccc(S(=O)(=O)NC4CCNCC4)cc3)[nH]c2nc1=O (stereo not shown) [Compound 1149]
3,< 16 µg/mL,N=C(N)NCCCNCc1ccc(-c2cn3cc(-c4ccc(C(=O)NC56CC7CC(CC(C7)C5)C6)cc4)[nH]c3nc2=O)cc1 [Compound 724]
4,< 16 µg/mL,N=C(N)NCCCNCc1ccc(-n2cc3cc(-c4ccc(S(=O)(=O)N(Cc5ccc(Cl)c(Cl)c5)C5CCNCC5)cc4)[nH]c3nc2=O)cc1 [Compound 725]
5,> 16 µg/mL,N=C(N)NCCCNCc1ccc(-n2cc3cc(-c4ccccc4OCCCN4CCNCC4)[nH]c3nc2=O)cc1 [Compound 1166]
6,> 16 µg/mL,NCCCNCc1ccc(-n2cc3cc(-c4ccccc4Cl)[nH]c3nc2=O)cc1 [Compound 288]
7,> 16 µg/mL,N=C(N)NCCCNCc1ccc(-n2cc3cc(C4CCCN(Cc5ncc[nH]5)C4)[nH]c3nc2=O)cc1 (stereo not shown) [Compound 2022a]
8,> 16 µg/mL,NCCCN(CCCN)Cc1ccc(-n2cc3cc(-c4ccc(S(=O)(=O)N(CC(=O)O)C5CCNCC5)cc4)[nH]c3nc2=O)cc1 [Compound 230]
9,> 16 µg/mL,N=C(N)NCCCNCc1ccc(-c2cn3cc(-c4ccc(C(=O)N5CCS(=O)(=O)CC5)cc4)[nH]c3nc2=O)cc1 [Compound 700]
10,< 16 µg/mL,NCCCNCc1ccc(-n2cc3cc(-c4ccc(S(=O)(=O)N(CC5CC5)C5CCNCC5)cc4)[nH]c3nc2=O)cc1 [Compound 711]
11,< 16 µg/mL,N=C(N)NCCCNCc1ccc(C2N=c3cc(-c4cccc(O)c4)[nH]c3=NC2=O)cc1 (stereo not shown) [Compound 1334]
12,> 16 µg/mL,NC(=O)COc1cccc(-n2cc3cc(-c4ccc(S(=O)(=O)NC5CCNCC5)cc4)[nH]c3nc2=O)c1 [Compound 1253]
13,> 16 µg/mL,N=C(N)CCCOc1cccc(-c2cc3cn(-c4ccc(CNCCCNC(=N)N)cc4)c(=O)nc3[nH]2)c1 [Compound 1191]
14,> 16 µg/mL,NCc1ccc(-n2cc3cc(-c4cccc(S(=O)(=O)N(CCc5ccc(F)cc5)C5CCNCC5)c4)[nH]c3nc2=O)cc1 [Compound 1160]
15,> 16 µg/mL,NCc1ccc(-n2cc3cc(-c4ccccc4OCCO)[nH]c3nc2=O)cc1 [Compound 1088]
16,< 16 µg/mL,NCCCNCc1ccc(-c2cn3cc(-c4ccc(C(=O)N5CC6CC5CN6)cc4)[nH]c3nc2=O)cc1 (stereo not shown) [Compound 742]

# Same assay, conditions: Escherichia coli, ATCC25922, read-out: E. coli ATCC25922 MIC
row,SMILES,MIC
1,"N=C(N)NCCCNCc1ccc(-c2cn3c(nc2=O)[nH]c2ccccc23)cc1 [Compound 602, N-{3-[4-(2-Oxo-2,10-dihydro-benzo[4,5]imidazo[1,2-a]pyrimidin-3-yl)-benzylamino]-propyl}-guanidine hydrochloride salt]",< 16 µg/mL

# — patent US9193731B2, “Antimicrobial compounds and methods of making and using the same” (Melinta Therapeutics, Inc., priority 2009, dated 2015)
